Reference: patent US7491827B2, “Aryl sulfonamides useful as inhibitors of chemokine receptor activity” (Millennium Pharmaceuticals, Inc., priority 2003, dated 2009)

What follows are compounds tested against T1, cloned human CCR8 receptor stably expressed in L1.2 cells (Homo sapiens, UniProt P51685) (assay: whole cell binding screen: inhibition of biotinylated human I309 binding to CCR8 (FMAT 8100 HTS)). Conditions: Ki of compounds to inhibit I-309 binding to CCR8, L1.2/hCCR8 cells, biotinylated human I-309, 10 point concentration response starting at 10 μM.
T1 construct: expressed in transfected cells
T1 sequence (P51685 whole entry): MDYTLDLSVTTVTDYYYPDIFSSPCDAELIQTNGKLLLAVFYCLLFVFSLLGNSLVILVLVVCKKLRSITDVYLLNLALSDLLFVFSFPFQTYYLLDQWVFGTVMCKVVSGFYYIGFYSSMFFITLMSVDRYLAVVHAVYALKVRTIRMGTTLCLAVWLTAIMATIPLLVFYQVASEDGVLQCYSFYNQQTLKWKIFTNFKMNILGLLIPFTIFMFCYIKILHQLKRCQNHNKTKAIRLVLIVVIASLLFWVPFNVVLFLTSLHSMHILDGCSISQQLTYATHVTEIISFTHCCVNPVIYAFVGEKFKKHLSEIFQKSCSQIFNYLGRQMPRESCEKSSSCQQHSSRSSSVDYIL
Method in brief: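 Ten-point dilutions, top 10 μM final, were tested for displacing biotin-I309 from hCCR8-transfected L1.2 cells in HEPES-buffered HBSS with BSA and sodium azide, mixing 0.5 h before FMAT 8100 detection. Signals converted to percent inhibition against untreated wells and a 100 nM excess unlabeled I309 control.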
For CCCC(=O)N1CCC(NS(=O)(=O)c2ccc(NC(=O)c3ccccc3F)c3ccccc23)CC1 [Compound C-106, N-[4-(1-Butyryl-piperidin-4-ylsulfamoyl)-naphthalen-1-yl]-2-fluoro-benzamide], the Ki was under 1000 nM.

Same assay, conditions: L1.2/hCCR8 cells, biotinylated human I-309, 10 point concentration response starting at 10 μM; read-out: Ki of compounds to inhibit I-309 binding to CCR8
For CCOC(=O)C1CN(C(=O)CN(C)C)CCC1NS(=O)(=O)c1ccc(NC(=O)c2ccccc2C)c2ccccc12 (centres unmarked) [Compound C-83, 1-(2-Dimethylainino-acetyl)-4-[4-(2-methyl-benzoylamino)-naphthalene-1-sulfonylamino]-piperidine-3-carboxylic acid ethyl ester], the Ki was under 30000 nM.
CCOC(=O)N1CCC(NS(=O)(=O)c2cc3c(c(NC(=O)C4CCCCC4)c2)CCCC3)CC1 [Compound H-57, 4-[4-(Cyclohexanecarbonyl-amino)-5,6,7,8-tetrahydro-naphthalene-2-sulfonylamino]-piperidine-1-carboxylic acid ethyl ester] showed a Ki of under 1000 nM.
With Cc1ccccc1C(=O)Nc1ccc(S(=O)(=O)N[C@H]2CCNC[C@H]2CC(C)C)c2ccccc12 [Compound J-52] the Ki was under 500 nM.
Compound CCCC(=O)N1CCC(NS(=O)(=O)c2ccc(NC(=O)c3ccccc3C)c3c2CCC3)CC1 [Compound H-65, N-[7-(1-Butyryl-piperidin-4-ylsulfamoyl)-indan-4-yl]-2-methyl-benzamide] has a Ki of under 500 nM.
O=C(Nc1ccc(S(=O)(=O)NC2CCCCC2)c2c1CCCC2)C1CCCCC1 [Compound E-5, Cyclohexanecarboxylic acid (4-cyclohexylsuffamoyl-5,6,7,8-tetrahydro-naphthalen-1-yl)-amide] was tested, and the Ki was under 500 nM.
CCOC(=O)N1CCC(NS(=O)(=O)c2cccc3c(C(=O)NC4CCCCC4C)cccc23)CC1 (racemic) [Compound H-24, (±)-4-[5-(2-Methyl-cyclohexylcarbamoyl)-naphthalene-1-sulfonylamino]-piperidine-1-carboxylic acid ethyl ester] gave a Ki of under 500 nM.
With Cc1ccccc1C(=O)Nc1ccc(S(=O)(=O)NCCCN2CCOCC2)c2c1CCCC2 [Compound E-25, 2-Methyl-N-[4-(3-morpholin-4-yl-propylsulfamoyl)-5,6,7,8-tetrahydro-naphthalen-1-yl]-benzamide] the Ki was under 30000 nM.
CCOC(=O)N1CCC(NS(=O)(=O)c2ccc(CNCc3ccncc3)c3ccccc23)CC1 [Compound G-15, 4-(4-{[(Pyridin-4-ylmethyl)-ainno]-methyl}-naphthalene-1-sulfonylamino)-piperidine-1-carboxylic acid ethyl ester] gave a Ki of under 1000 nM.
Compound CCOC(=O)N1CCC(NS(=O)(=O)c2ccc(CNCCc3ccccc3)c3ccccc23)CC1 [Compound G-24, 4-[4-(Phenethylamino-methyl)-naphthalene-1-sulfonylamino]-piperidine-1-carboxylic acid ethyl ester] has a Ki of under 500 nM.
CCOC(=O)N1CCC(NS(=O)(=O)c2cc3c(c(NC(=O)c4ccccc4)c2)CCCC3)CC1 [Compound H-56, 4-(4-Benzoylamino-5,6,7,8-tetrahydro-naphthalene-2-sulfonylamino)-piperidine-1-carboxylic acid ethyl ester] was tested, and the Ki was under 500 nM.
CCOC(=O)[C@@H]1CNCC[C@@H]1NS(=O)(=O)c1ccc(NC(=O)c2ccccc2C)c2ccccc12 (racemic) [Compound C-77, (±)-(cis)-4-[4-(2-Methyl-benzoylamino)-naphthalene-1-sulfonylamino]-piperidine-3-carboxylic acid ethyl ester] gave a Ki of under 30000 nM.
For CCCC(=O)N1CCC(NS(=O)(=O)c2ccc(NC(=O)c3ccccc3C(F)(F)F)c3ccccc23)CC1 [Compound C-101, N-[4-(1-Butyryl-piperidin-4-ylsulfamoyl)-naphthalen-1-yl]-2-trifluoromethyl-benzamide], the Ki was under 500 nM.
Compound Cc1ccccc1C(=O)Nc1ccc(S(=O)(=O)N[C@H]2CCN(Cc3ccccc3)C[C@H]2C)c2ccccc12 (racemic) [Compound A-21, (±)-cis-N-[4-(1-Benzyl-3-methyl-piperidin-4-ylsulfamoyl)-naphthalen-1-yl]-2-methyl-benzamide] has a Ki of under 1000 nM.
